Results: patent publication US20060240535A1, “Carbonyl reductase from lactococcus lactis” (GEORGIA TECH RESEARCH CORPORATION, priority 2004, published 2006)

Assays:
[1] = test system: carbonyl reductase from Lactococcus lactis; experiment: CRLL activity assay (decrease of NADPH absorption); substrate table of the isolated carbonyl reductase; type: biochemical; conditions: Substrate (20 mM); for spec. Act. (U/mg): activity per protein (0.37, 5.5 or 6.6 mg/mL)
Text: The construct crll-pkk223-3 as well as crll-his-pkk223-3 were both transformed separately into the E. coli host strain HB101 for expression.

[2] = target: T1, carbonyl reductase from Lactococcus lactis (LL-CR) (Lactococcus lactis, UniProt Q9CJ60); experiment: Oxidation of secondary alcohols to ketones by LL-CR (enantiospecificity); type: biochemical
[3] = target: T1, carbonyl reductase from Lactococcus lactis (LL-CR); experiment: Purified CRLL activity in aqueous-organic tunable solvents (OATS); type: biochemical
Protocol: As LL-CR requires organic buffers for stability, such as HEPES or triethanolamine, runs were conducted in partially organic systems using a buffer system of 200 mM NH4CHO3 and 50 mM HEPES at pH 7.0.

[4] = target: T1, carbonyl reductase from Lactococcus lactis (LL-CR); experiment: Enzyme characterisation of purified LL-CR (KM, vmax, kcat, pH and T optima); type: biochemical
[5] = substrate: CC(=O)c1ccccc1; experiment: as above; type: biochemical, Lactococcus lactis; conditions: other: pH 7.0 and 30° C.

CC(O)CO (centres unmarked) [1,2-propanediol]
Activity (U/mL) [1]: 0.025 U/mL | spec. Act. (U/mg) [1]: 0.06757 U/mg

O=C1CCCC2CCCCC12 (centres unmarked) [1-decalone]
Activity (U/mL) [1]: 5.29 U/mL | spec. Act. (U/mg) [1]: 14.3 U/mg

O=C1CCc2ccccc21 [1-indanone]
spec. Act. (U/mg) [1]: 0 U/mg

CC(=O)CC(C)=O [2,4-pentane-dione]
Activity (U/mL) [1]: 90.77 U/mL | spec. Act. (U/mg) [1]: 13.75 U/mg

CCCCC(C)=O [2-hexanone]
Activity (U/mL) [1]: 1.28 U/mL | spec. Act. (U/mg) [1]: 3.459 U/mg

CC1CC(=O)CC(C)(C)C1 (centres unmarked) [3,3,5-trimethyl-CHone]
Activity (U/mL) [1]: 0.24 U/mL | spec. Act. (U/mg) [1]: 0.6486 U/mg

CC(=O)C(C)C [3-methyl-2-butanone]
Activity (U/mL) [1]: 12.06 U/mL | spec. Act. (U/mg) [1]: 32.59 U/mg

CC(=O)CC(C)C [4-methyl-2-pentanone]
Activity (U/mL) [1]: 21.7 U/mL | spec. Act. (U/mg) [1]: 3.288 U/mg

C[C@@H](O)c1ccccc1 [(R)-1-phenyl-1-ethanol]
oxidation of secondary alcohol to the respective ketone [2]: can oxidize

CCCC[C@@H](C)O [(R)-2-hexanol]
oxidation of secondary alcohol to the respective ketone [2]: can oxidize

COC(=O)CC(C)=O [Methyl acetoacetate]
Activity (U/mL) [1]: 36.7 U/mL | spec. Act. (U/mg) [1]: 5.561 U/mg

COC(=O)C(=O)c1ccccc1 [Methyl benzoylformate]
Activity (U/mL) [1]: 3.86 U/mL | spec. Act. (U/mg) [1]: 0.5848 U/mg

CC(=O)COc1ccccc1 [Phenoxy-2-propanone]
Activity (U/mL) [1]: 10.61 U/mL | spec. Act. (U/mg) [1]: 28.68 U/mg

CC(C)=O [acetone]
Activity (U/mL) [1]: 8.36 U/mL | spec. Act. (U/mg) [1]: 22.59 U/mg

CC(=O)CCC(C)=O [acetonylacetone]
Activity (U/mL) [1]: 57.88 U/mL | spec. Act. (U/mg) [1]: 8.77 U/mg

CC(=O)c1ccccc1 [acetophenone]
Activity (U/mL) [1]: 53 U/mL | spec. Act. (U/mg) [1]: 8.03 U/mg

O=Cc1ccccc1 [benzaldehyde]
Activity (U/mL) [1]: 8.3 U/mL | spec. Act. (U/mg) [1]: 1.258 U/mg

O=C(O)C(=O)c1ccccc1 [benzoylformate]
Activity (U/mL) [1]: 0 U/mL | spec. Act. (U/mg) [1]: 0 U/mg

CCCC=O [butyraldehyde]
Activity (U/mL) [1]: 12.7 U/mL | spec. Act. (U/mg) [1]: 34.32 U/mg

O=C1CCCCC1 [cyclohexanone]
Activity (U/mL) [1]: 49 U/mL | spec. Act. (U/mg) [1]: 7.424 U/mg

OCCOCCO [diethyleneglycol]
Activity (U/mL) [1]: 0.38 U/mL | spec. Act. (U/mg) [1]: 1.027 U/mg

CCOCCO [ethoxyethanol]
Activity (U/mL) [1]: 0.0128 U/mL | spec. Act. (U/mg) [1]: 0.03459 U/mg

CCCC(=O)CC(=O)OCC [ethyl 3-oxohexanoate]
Activity (U/mL) [1]: 9.64 U/mL | spec. Act. (U/mg) [1]: 26.05 U/mg

CCOC(=O)CC(C)=O [ethyl acetoacetate]
Activity (U/mL) [1]: 7.07 U/mL | spec. Act. (U/mg) [1]: 19.11 U/mg

CCOC(=O)CC(=O)c1ccccc1 [ethyl benzoylacetate]
Activity (U/mL) [1]: 4.98 U/mL | spec. Act. (U/mg) [1]: 13.46 U/mg

CCOC(=O)C(=O)c1ccccc1 [ethyl benzoylformate]
Activity (U/mL) [1]: 11.25 U/mL | spec. Act. (U/mg) [1]: 1.705 U/mg

CCOC(=O)C(C)=O [ethyl pyruvate]
Activity (U/mL) [1]: 16.32 U/mL | spec. Act. (U/mg) [1]: 2.473 U/mg

CCCCCC=O [hexylaldehyde]
Activity (U/mL) [1]: 45.82 U/mL | spec. Act. (U/mg) [1]: 6.942 U/mg

CC(=O)CO [hydroxyacetone]
Activity (U/mL) [1]: 0.77 U/mL | spec. Act. (U/mg) [1]: 2.081 U/mg

CC(C)O [isopropanol]
specific activity of LL-CR on isopropanol ([3]; regeneration substrate, extends beyond 50% solvent content): 2-4 U/mg protein

CC1(C)COC(=O)C1=O [ketopantolactone]
Activity (U/mL) [1]: 9.49 U/mL | spec. Act. (U/mg) [1]: 25.65 U/mg

CCCCCCCC=O [octylaldehyde]
Activity (U/mL) [1]: 10.93 U/mL | spec. Act. (U/mg) [1]: 1.656 U/mg

CC(=O)C(C)(C)C [pinacolone]
Activity (U/mL) [1]: 22.5 U/mL | spec. Act. (U/mg) [1]: 3.409 U/mg

CCC=O [propionaldehyde]
Activity (U/mL) [1]: 69 U/mL | spec. Act. (U/mg) [1]: 10.45 U/mg

CCC(=O)c1ccccc1 [propiophenone]
Activity (U/mL) [1]: 2.2 U/mL | spec. Act. (U/mg) [1]: 0.4 U/mg

t-butylcyclohexanone
Activity (U/mL) [1]: 0 U/mL | spec. Act. (U/mg) [1]: 0 U/mg

tetralone
Activity (U/mL) [1]: 3.2 U/mL | spec. Act. (U/mg) [1]: 0.4848 U/mg

B1: carbonyl reductase from Lactococcus lactis (LL-CR) (Lactococcus lactis subsp. lactis Il1403) (protein)
chain: MKTLITGENKGIGFALAQNLGHRGYEVLVGARNETRGQEAVEKLKAEGITAKFVKVDLDDLNQLTSLSALTDIDLLINNAGISGNIHSDKGHLDMEKSAFDYSTTDLEETIKTNFLGTHAVIKELLPHSLTENAKIINITVPVSQEYWMPLAYVTSKAAQNAMTFAFGHQFKKDKSKKQIFAVMPGAVATDLNGAKVGDSPFVKSPEETAQMISKFIFDDKNHNAQIINFDGTIYDNYEPGLRNKVIKDVAKNGLKRKFKK
organic solvent content at which enzyme is active ([3]; 200 mM NH4HCO3/50 mM HEPES, pH 7.0, 30° C.): up to 50% | organic solvent content at which stable ([3]; acetonitrile, dioxane, or tetrahydrofuran): below 60% | T optimum [4]: 40 °C | pH optimum [4]: 6.5 | calculated kcat ([4]; pH 7.0 and 30° C.): 24 s⁻¹ | vmax ([4]; pH 7.0 and 30° C.): 80 U/mg pure protein | Km [5]: 0.5 mM
